Source: patent US6251882A, “Alkyl ketones as potent anti-cancer agents” (Parker Hughes Institute, priority 1999, dated 2001)
Residues, ends and D or L forms follow the SMILES beside them. *: point of attachment. Farnesyl = CC(C)=CCC/C(C)=C/CC/C(C)=C/C*; Boc = CC(C)(C)OC(=O)*; CHN2 = [N-]=[N+]=C*

Columns and labels:
BT-20 (breast cancer) = test: MTT cytotoxicity assay, BT-20; type: cell-based; conditions: Homo sapiens, 24-36 hours at 37° C., 0.1 to 250 μM
Method: (§1) Cytotoxicity of various compounds against tumor cells was performed using the MTT (3-[4,5-[…]]-2,5-diphenyl tetrazolium bromide) assay (Boehringer Mannheim Corp., Indianapolis, Ind.). Unless otherwise specified, all cell lines were obtained from the American Type Culture Collection (ATCC). Briefly, exponentially growing cells were seeded into a 96-well plate at a density of 2.5×10^4 cells/well and incubated for 36 hours at 37° C. prior to drug exposure. On the day of treatment, culture medium was carefully aspirated from the wells and replaced with fresh medium containing the indicated compound at concentrations ranging from 0.1 to 250 μM. Triplicate wells were used for each treatment.
(§2) Human leukemic cell lines (NALM-6, MOLT-3) glioblastoma cells (U373) and human breast tumor cell lines (BT20 and MDA-MB-231) were obtained from the American Type Culture Collection and maintained as a continuous cell line in Dulbecco's modified Eagles's medium supplemented with 10% fetal bovine serum and antibiotics.
(§3) The cells were incubated with the various compounds for 24-36 hours at 37° C. in a humidified 5% CO2 atmosphere. To each well, 10 μl of MTT (0.5 mg/ml final concentration) was added and the plates were incubated at 37° C. for 4 hours to allow MTT to form formazan crystals by reacting with metabolically active cells. The formazan crystals were solubilized overnight at 37° C. in a solution containing 10% SDS in 0.01 M HCl. The absorbence of each well was measured in a microplate reader (Labsystems) at 540 nm and a reference wavelength of […]. To translate the OD540 values into the number of live cells in each well, the OD540 values were compared to those on standard OD540 --versus--cell number curves generated for each cell line. The percent survival was calculated using the formula: [formula]
(§4) The IC50 values were calculated by non-linear regression analysis and are shown below in Tables 1-6.

PC-3 (prostate cancer) = test: MTT cytotoxicity assay, PC-3; type: cell-based; conditions: 24-36 hours at 37° C., 0.1 to 250 μM
Method: as §1, §3, §4

Molt-3 (T-lineage ALL) = test: MTT cytotoxicity assay, Molt-3; type: cell-based, human; conditions: Homo sapiens, MOLT-3, MTT, 24-36 hours at 37° C., 0.1 to 250 μM
Method: as §1, §2, §3, §4

Nalm-6 (B-lineage ALL) = test: MTT cytotoxicity assay, Nalm-6; type: cell-based; conditions: Homo sapiens, 24-36 hours at 37° C., 0.1 to 250 μM
Method: as §1, §2, §3, §4

U-373 (glioblastoma) = test: MTT cytotoxicity assay, U-373; type: cell-based; conditions: Homo sapiens, U373 MG, 24-36 hours at 37° C., 0.1 to 250 μM
Method: as §1, §2, §3, §4

SMILES	IC50 (BT-20 (breast cancer))	IC50 (PC-3 (prostate cancer))	IC50 (Molt-3 (T-lineage ALL))	IC50 (Nalm-6 (B-lineage ALL))	IC50 (U-373 (glioblastoma))
CCCCCCCCCCCCSC[C@H](NC(=O)OCC1c2ccccc2-c2ccccc21)C(=O)CCl [HI-398, N-9-Fluorenylmethyloxycarbonyl-S-dodecyl-cysteine chloromethyl ketone]	> 100 µM	> 100 µM	32.3 µM	25.7 µM	> 100 µM
CCCCCCCCCCCCSC[C@H](NC(C)=O)C(=O)CSc1c(F)c(F)c(F)c(F)c1F [HI-399]	> 100 µM	91.6 µM	40.8 µM	91.2 µM	> 100 µM
CC(C)=CCC/C(C)=C/CC/C(C)=C/CSC[C@H](NC(=O)CNC(=O)OC(C)(C)C)C(=O)C=[N+]=[N-] [HI-401, N-Boc-Gly-S-trans-trans-farnesyl-Cys diazomethyl ketone] (Boc-Gly-Cys(Farnesyl)-CHN2)	95.1 µM	90.6 µM	84.5 µM	51.3 µM	> 100 µM
C=CCSC[C@H](NC(C)=O)C(=O)CCl [HI-419, N-Ac-S-allyl-cysteine chloromethyl ketone]	55.7 µM	> 100 µM	7.3 µM	4.3 µM	56.7 µM
CCCCCCCCCCCCSC[C@H](NC(C)=O)C(=O)CBr [HI-488, N-Ac-S-dodecyl-cysteine bromomethyl ketone]	33.8 µM	39.6 µM	3.19 µM	1.3 µM	22.5 µM
CCCCCCCCCCCCOC[C@H](NC(C)=O)C(=O)CCl [HI-489, N-Ac-O-dodecyl-serine chloromethyl ketone]	> 100 µM	> 100 µM	15.3 µM	3.8 µM	> 100 µM
CCCCCCCCCCCCSC[C@H](NC(=O)C(F)(F)F)C(=O)CCl [HI-490, N-Trifluoroacetyl-S-dodecyl-cysteine chloromethyl ketone]	> 100 µM	> 100 µM	41.3 µM	32.6 µM	> 100 µM
CCCCCCCCCCCCSC[C@H](NC(=O)c1ccccc1)C(=O)CCl [HI-491, N-Benzoyl-S-dodecyl-cysteine chloromethyl ketone]	> 100 µM	52.1 µM	6.5 µM	5.4 µM	> 100 µM
